pKd: −log10 of the molar value.
Experiments:
[1] = read-out: Kd for glucose; cited from earlier work
[2] = oral phenylalanine load, Phe concentration in serum from capillary blood detected by aptamer; assay type: in vivo; conditions: 100 mg per kg body weight by mouth, 1 hr, FIG. 11B
Description: FIG. 11A-FIG. 11B is a chemical structure of PACp*Rh01 aptamer (SEQ ID NO: 53) reactive for Phe and cross-reactive for Trp and a scatter and line plot showing use thereof. FIG. 11A depicts the structure of an aptamer reactive for Phe and cross-reactive for Trp. FIG. 11B is a scatter and line plot showing aptamer detected Phe concentration (μM) as a function of time (hr) in serum samples from capillary blood of subject two and subject three having an oral load of 100 mg/kg at time zero.
This aptamer was used to detected Phe concentration (μM) as a function of time (hr) in serum samples from capillary blood of subject one and subject three that took 100 mg of phenylanine per kg body weight by mouth at time zero (see e.g., FIG. 11B). […] Every hour, blood was measured for the phenylalanine concentration. In a healthy subject, the enzymes that break down phenylalanine (e.g., phenylalanine hydroxylase (PAH) or BH4-cofactor, alone or together) are stimulated and break down phenylalanine resulting in decreased concentration (see 2-5 hr in FIG. 11B).

[3] = system: phenylalanine complexed with Cu(II); test: amino acid selectivity of Cu(II) phenylalanine aptamers (RFU vs amino acid concentration); assay type: binding; conditions: for amino acid selectivity: Cu(II)
Description: (§1) FIG. 12A-FIG. 12D is a series of aptamer structures and scatter and line plots showing use thereof.
This aptamer sensor mixture (not including Cp*Rh) was incubated with concentrations of amino acids (Phe, Tyr, Trp, Gly) and fluorescence (RFU) measured (see e.g., FIG. 12B).

[4] = system: amino acid complexed with Cp*Rh(III); test: amino acid selectivity of Cp*Rh(III)-amino acid binding aptamers in sensor form; conditions: Cp*Rh(III) derivatization agent
Excerpt: A series of aptamers were formed having an unbound nucleic acid pocket (see e.g., FIG. 7B-G).
An exemplary motif having a plurality of unpaired bases forming a pocket that binds a metal complex or an amino acid target molecule is shown in FIG. 8A. […]

[5] = amino acid selectivity of HPheA104 aptamer sensor (RFU vs amino acid concentration); assay type: binding
Description: as §1
This aptamer sensor mixture (not including Cp*Rh) was incubated with concentrations of amino acids (Phe, Trp, Tyr) and fluorescence (RFU) measured (see e.g., FIG. 12D).

Row | Compound | amino acid selectivity [4] | further results
1 | CN(Cc1ccccc1B(O)O)Cc1c2ccccc2c(CN(C)Cc2ccccc2B(O)O)c2ccccc12 [bis-boronic receptor] | – | pKd [1]: ~3.30
2 | N[C@@H](Cc1ccccc1)C(=O)O [phenylalanine] | – | phenylalanine concentration in blood [2]: rises significantly
3 | CTCTCGGGACGACAGGTCCCTTTCGTAGATCGAGGAAGTATGTCGTCCC (listed as DNA, chemistry not fully specified) [Cu(II)-Phe10_49 nt, phenylalanine-Cu(II) complex aptamer] | – | amino acid selectivity [3]: Phe cross-reactive Trp
4 | CTCTCGGGACGACCGCGGTAGTCTTAACCTAAAGCGGTGTCAGGTCGTCCC (listed as DNA, chemistry not fully specified) [HTrp03, tryptophan-Cp*Rh(III) complex aptamer] | Trp selective | –
5 | CTCTCGGGACGACCGCGTTTCCCAAGAAAGCAAGTTTTGGTTGGTCGTCCC (aptamer; listed as DNA, chemistry not fully specified) [HPheA104] | – | amino acid selectivity [5]: Phe reactive; specificity among phenylalanine, tryptophan, tyrosine ([5]; sensor mixture not including Cp*Rh, FIG. 12D): Phe specificity is demonstrated
6 | CTCTCGGGACGACGACACGGGCGTCCCTTCACAAGGAGAGTGAGTCGTCCC (listed as DNA, chemistry not fully specified) [ARG01_Cp, arginine-Cp*Rh(III) complex aptamer] | Arg selective | –
7 | CTCTCGGGACGACGAGGCTGGATGCATTCGCCGGATGTTCGATGTCGTCCC (listed as DNA, chemistry not fully specified) [Cu(II)_Phe01, phenylalanine-Cu(II) complex aptamer] | – | amino acid selectivity [3]: Phe reactive; specificity among phenylalanine, tyrosine, tryptophan, glycine ([3]; sensor mixture not including Cp*Rh, FIG. 12B): Phe specificity is demonstrated
8 | CTCTCGGGACGACGCGGTGTGGATCCCTCGTAGAAGGAGTAGTGTCGTCCC (aptamer; listed as DNA, chemistry not fully specified) [LysCp05, lysine-Cp*Rh(III) complex aptamer] | Lys selective | –
9 | CTCTCGGGACGACGGACGCTAATCTTACAAGGGCGTAGTGTATGTCGTCCC (listed as DNA, chemistry not fully specified) [PACp*Rh01, phenylalanine-Cp*Rh(III) complex aptamer] | Phe cross-reactive Trp | –
10 | CTCTCGGGACGACGGCCCGATCTCAGAGTAGTCGTCCC (listed as DNA, chemistry not fully specified) [Tyr-Cp*Rh(38nt), tyrosine-Cp*Rh(III) complex aptamer] | Tyr selective | –
11 | CTCTCGGGACGACGGCGGGCGCGTATGTATATCATAAGGTGTAGTCGTCCC (aptamer; listed as DNA, chemistry not fully specified) [LeuCp17, leucine-Cp*Rh(III) complex aptamer] | selective for Leu over Ile | –
12 | CTCTCGGGACGACGGCGGGGAAACAGCTGCAAAATGTGGAGTAGTCGTCCC (Cp*Rh(III)-citrulline complex, further chemistry not given here) [CIT30N02_Cp*Rh, citrulline-Cp*Rh(III) complex aptamer] | citrulline non-selective | –
13 | CTCTCGGGACGACGGCGGGTGAATGCACACTTAGCAGAGAGTAGTCGTCCC (aptamer; listed as DNA, chemistry not fully specified) [GlutaCp02, glutamine-Cp*Rh(III) complex aptamer] | Gln selective | –
14 | CTCTCGGGACGACGGGCCACGTTTTCCAGGTACTTTCTAAGGGGTCGTCCC (aptamer; listed as DNA, chemistry not fully specified) [AspaCp03, asparagine-Cp*Rh(III) complex aptamer] | Asn selective | –
15 | CTCTCGGGACGACGGGCTAGGCGTGGGTGTAAAGGCACAGGGGTCGTCCC (listed as DNA, chemistry not fully specified) [Gly-Cp sensor, glycine-Cp*Rh(III) complex aptamer] | Gly selective | –
16 | CTCTCGGGACGACGGGTCAGTTAGACCGTGAGGCTTCCGAATAGTCGTCCC (aptamer; listed as DNA, chemistry not fully specified) [GLYHW-Cp*Rh06, glycine-Cp*Rh(III) complex aptamer] | Gly non-specific | –
17 | CTCTCGGGACGACGGGTGGGAGCGATTCGAGCTACTCAGGTATGTCGTCCC (aptamer; listed as DNA, chemistry not fully specified) [LysCp*Rh18, lysine-Cp*Rh(III) complex aptamer] | Lys non-selective | –

From patent US11034952B2, “Aptamer methods and compositions” (The Trustees of Columbia University in the City of New York, priority 2013, dated 2021)
